In US4237273A, “Bis(nitrosoureido)-polyol derivatives” (Richter Gedeon Vegyeszeti Gyar RT, priority 1977, dated 1980):
Read-outs that look alike come from different tables or passages of the source.

Key:
[1] = Acute toxicity (LD50), 21 days observation; assay type: in vivo; settings: mouse, in vivo, BDF1 mice of both sexes
Method: Species: BDF1 mice of both sexes
Treatment: a volume of 0.2 ml./10 g. body weight of a suspension of the tested compounds in water containing 2% of Tween-80 was used.
Number of animals: 10/dose
Observation time: 21 days

Rausher leukemia = assay: Antitumour activity, Rauscher leukemia, spleen weight (Table 3); assay type: in vivo, CFLP mice; settings: from the 2nd day
Method: (§1) The leukemia and ascites type tumours were transplanted intraperitoneally, using an amount of 10^5 -10^7 cells, while in the case of solid tumours, small pieces of tumours were implanted subcutaneously with a trocar. Treatment:
(§2) Mice were treated with a volume of 0.1 ml./10 g. body-weight of a suspension of the tested compounds in water containing 2% of Tween-80, while rats were treated with a volume of 0.1 ml./100 g. bodyweight of a suspension of the tested compounds in water containing 5% of Tween-80.
(§3) In the case of solid tumours (Harding-Passey melanoma, S-180 and Yoshida sarcoma) the tumours were removed on the 8 to 14th day, and the inhibition was calculated by the weight of the tumours, using the following formula: [formula]
A similar method was applied in the case of the Rauscher leukemia too, but the weight of the spleen was taken, instead of the tumour, in the formula mentioned above.

Yoshida s.c. sarcoma = assay: Antitumour activity, Yoshida s.c. sarcoma, tumour weight (Table 3); assay type: in vivo, CFY rats; settings: from the 2nd day
Method: as §1, §2, §3

L-120 leukemia = assay: Antitumour activity, L-1210 leukemia (Table 2); assay type: in vivo, BDF1 mice; settings: for Increase in life span / Recovery (90 day survival): from the 2nd day; for Recovery (90 day survival): animals recovered/treated
Method: as §1, §2
(§4) The ascites and leukemia-type tumours were evaluated with the exception of the Rausher leukemia by the increase of the life span and by complete recovery. [formula]
(§5) Recovery=90 days of tumour free life after transplantation.

P-388 leukemia = assay: Antitumour activity, P-388 leukemia (Table 2); assay type: in vivo, BDF1 mice; settings: from the 2nd day; for Recovery (90 day survival): animals recovered/treated
Method: as §1, §2, §4, §5

NK/Ly ascites lymphoma = assay: Antitumour activity, NK/Ly ascites lymphoma (Table 2); assay type: in vivo, CFLP mice; settings: from the 2nd day; for Recovery (90 day survival): animals recovered/treated
Method: as §1, §2, §4, §5

Ehrlich acites carcinoma = assay: Antitumour activity, Ehrlich ascites carcinoma (Table 2); assay type: in vivo, CFLP mice; settings: from the 2nd day; for Recovery (90 day survival): animals recovered/treated
Method: as §1, §2, §4, §5

Harding-Passey melanoma = assay: Antitumour activity, Harding-Passey melanoma, tumour weight (Table 3); assay type: in vivo, CFLP mice; settings: from the 4th day after transplantation
Method: as §1, §2, §3

S-180 s.c. sarcoma = assay: Antitumour activity, S-180 s.c. sarcoma, tumour weight (Table 3); assay type: in vivo, CFLP mice; settings: from the 2nd day
Method: as §1, §2, §3

[2] = system: Developed Yoshida s.c. sarcoma; assay: Recovery from developed Yoshida s.c. sarcoma, treated on 6th day (Table 4); assay type: in vivo, CFY rats; settings: for Recovery (90 day survival): 30 mg./kg. 1× i.p. on 6th day, animals recovered/treated
Method: as §1, §2, §5

[3] = system: Ehrlich ascites carcinoma; assay: Duration of activity: total cell number in Ehrlich ascites carcinoma; assay type: in vivo, Mice; settings: i.p. on the 6th day after transplantation, equitoxic doses
Method: (§6) Mice, being infected with Ehrlich ascites carcinoma, were treated intraperitoneally on the 6th day after transplantation with equitoxic doses of compounds 1, 2 and 6. The duration of the activity was investigated by determining the total cell number and the way of action by determining the mitosis index* and the thymidine index**. It could be shown that both compounds 1 and 2 inhibit the increase of the total cell number for 35 days, while a similar inhibition of the reference compound 6 lasts only for 17 days. As far as the quality of the activity is concerned, compounds 1 and 2 decrease the mitosis-index and the thymidine index in 24 hours by 90%, while in the case of compound 6 the decrease amounts only to 45 to 50%, and the maximum is reached on the 4th day.

[4] = system: Ehrlich ascites carcinoma; assay: Way of activity: mitosis index in Ehrlich ascites carcinoma; assay type: in vivo, Mice; settings: i.p. on 6th day, equitoxic doses
Method: as §6
*mitosis index=number of dividing cells/1000 tumour cells

[5] = system: Ehrlich ascites carcinoma; assay: Way of activity: thymidine index (3H-thymidine incorporation into DNS) in Ehrlich ascites carcinoma; assay type: in vivo, Mice; settings: i.p. on 6th day, equitoxic doses
Method: as §6
**thymidine index=^3 H-thymidine incorporation into the DNS of the tumour cell.

[6] = ip, i.p., read-out: LD50 value i.p.
[7] = po, p.o., read-out: LD50 value p.o.

SMILES	LD50 at 504 h [1, 6]	LD50 at 504 h [1, 7]	Inhibition (spleen weight) (Rausher leukemia; 10.0 mg./kg. 4× i.p.)	Inhibition (spleen weight) (Rausher leukemia; 10.0 mg./kg. 4× p.o.)	Inhibition (tumour weight) (Yoshida s.c. sarcoma; 3 mg./kg. 4× p.o.)	Inhibition (tumour weight) (Yoshida s.c. sarcoma; 10 mg./kg. 4× i.p.)	Increase in life span (L-120 leukemia; 3.0 mg./kg. 4× i.p.)	Recovery (90 day survival) (L-120 leukemia; 3.0 mg./kg. 4× i.p.)	Increase in life span (L-120 leukemia; 10.0 mg./kg. 4× i.p.)	Recovery (90 day survival) (L-120 leukemia; 10.0 mg./kg. 4× i.p.)	Recovery (90 day survival) (NK/Ly ascites lymphoma; 0.3 mg./kg. 4× i.p.)	Increase in life span (Ehrlich acites carcinoma; 1.0 mg./kg. 5× i.p.)	Recovery (90 day survival) (Ehrlich acites carcinoma; 1.0 mg./kg. 5× i.p.)	Inhibition (tumour weight) (Harding-Passey melanoma; 10.0 mg./kg. 9× p.o.)	Inhibition (tumour weight) (S-180 s.c. sarcoma; 10.0 mg./kg. 5× i.p.)	Recovery (90 day survival) [2]	Duration of inhibition of the increase of the total cell number [3]	Increase in life span (L-120 leukemia; 10.0 mg./kg. 4× p.o.)	Recovery (90 day survival) (L-120 leukemia; 10.0 mg./kg. 4× p.o.)	Increase in life span (P-388 leukemia; 3.0 mg./kg. 4× i.p.)	other results
O=NN(CCCl)C(=O)NC[C@@H](O)[C@H](O)CN(N=O)C(=O)NCCCl (racemic) [Compound 4, 1-[3-(2-chloroethyl)-3-nitrosoureido]-4-[3-(2-chloroethyl)-1-nitrosoureido]-1,4-dideoxy-D,L-threitol]	80 mg/kg	130 mg/kg	100%	100%	50%	82%															
O=NN(CCCl)C(=O)NC[C@@H](O)[C@H](O)CNC(=O)N(CCCl)N=O (racemic) [Compound 5, 1,4-bis[3-(2-chloroethyl)-3-nitrosoureido]-1,4-dideoxy-D,L-threitol]	40 mg/kg	75 mg/kg		100%	62%																Inhibition (spleen weight) (Rausher leukemia; 3.0 mg./kg. 4× i.p.): 75%; Inhibition (tumour weight) (Yoshida s.c. sarcoma; 10 mg./kg. 2× p.o.): 99%
O=NN(CCCl)C(=O)NC[C@@H](O)[C@@H](O)[C@H](O)[C@H](O)CNC(=O)N(CCCl)N=O [Compound 2, 1,6-bis[3-(3-chloroethyl)-N-nitrosoureido]-1,6-dideoxy-D-mannitol]	110 mg/kg	250 mg/kg	86%			84%	158%	3/10	140%	8/10	6/7	96%	4/7	59%	56%	4/7	35 days				Increase in life span (L-120 leukemia; 1.0 mg./kg. 4× i.p.): 58%; Recovery (90 day survival) (L-120 leukemia; 1.0 mg./kg. 4× i.p.): 0/10; Increase in life span (P-388 leukemia; 10.0 mg./kg. 4× i.p.): 131%; Recovery (90 day survival) (P-388 leukemia; 10.0 mg./kg. 4× i.p.): 0/8; Inhibition (tumour weight) (Harding-Passey melanoma; 10.0 mg./kg. 9× i.p.): 42%; Inhibition (tumour weight) (S-180 s.c. sarcoma; 30.0 mg./kg. 5× p.o.): 51%; Inhibition (tumour weight) (Yoshida s.c. sarcoma; 30 mg./kg. 4× p.o.): 75%; Decrease of the mitosis-index ([4]; in 24 hours): 90%; Decrease of the thymidine index ([5]; in 24 hours): 90%
O=NN(CCCl)C(=O)N[C@H]1C[C@@H](NC(=O)N(CCCl)N=O)[C@H](O)[C@@H](O)[C@@H]1O [Compound 3, 1,3-bis[3-(2-chloroethyl)-N-nitriosoureido]-1,2,3-trideoxyscylloinositol]	40 mg/kg	100 mg/kg				86%						46%	2/7	38%				61%	1/7	101%	Increase in life span (L-120 leukemia; 15.0 mg./kg. 1× i.p.): 180%; Recovery (90 day survival) (L-120 leukemia; 15.0 mg./kg. 1× i.p.): 5/8; Recovery (90 day survival) (P-388 leukemia; 3.0 mg./kg. 4× i.p.): 0/8; Recovery (90 day survival) (NK/Ly ascites lymphoma; 0.1 mg./kg. 4× (route not given)): 7/7; Increase in life span (NK/Ly ascites lymphoma; 10.0 mg./kg. 4× p.o.): 61%; Recovery (90 day survival) (NK/Ly ascites lymphoma; 10.0 mg./kg. 4× p.o.): 1/7; Inhibition (spleen weight) (Rausher leukemia; 10.0 mg./kg. 6× i.p.): 100%; Inhibition (tumour weight) (Harding-Passey melanoma; 3.0 mg./kg. 9× i.p.): 54%
O=NN(CCCl)C(=O)NCCCl [Compound 6, 1,3-bis(2-chloroethyl)-1-nitrosourea, reference compound]	36 mg/kg	40 mg/kg			45%	95%	40%	0/8	405%	6/7	0/7				65%	0/7	17 days	106%	1/8	51%	Increase in life span (L-120 leukemia; 24.0 mg./kg. 1× p.o.): 48%; Recovery (90 day survival) (L-120 leukemia; 24.0 mg./kg. 1× p.o.): 0/8; Activity on L-1210 leukemia on oral application, in words (L-120 leukemia; oral): only an unsignificant oral activity; Recovery (90 day survival) (P-388 leukemia; 3.0 mg./kg. 4× i.p.): 0/8; Recovery (90 day survival) (NK/Ly ascites lymphoma; 1.0 mg./kg. 4× i.p.): 5/7; Recovery (90 day survival) (NK/Ly ascites lymphoma; 3.0 mg./kg. 4× i.p.): 7/7; Increase in life span (Ehrlich acites carcinoma; 3.0 mg./kg. 5× i.p.): 60%; Recovery (90 day survival) (Ehrlich acites carcinoma; 3.0 mg./kg. 5× i.p.): 1/6; Inhibition (spleen weight) (Rausher leukemia; 10.0 mg./kg. 6× i.p.): 97%; Inhibition (tumour weight) (Harding-Passey melanoma; 3.0 mg./kg. 9× i.p.): 64%; Inhibition (tumour weight) (Harding-Passey melanoma; 3.0 mg./kg. 9× p.o.): 71%; Inhibition (tumour weight) (S-180 s.c. sarcoma; 10.0 mg./kg. 5× p.o.): 32%; Inhibition (tumour weight) (Yoshida s.c. sarcoma; 10 mg./kg. 4× p.o.): 100%; Cure of Yoshida subcutaneous sarcoma, in words ([2]; single dose on the 6th day): inactive; Day on which the maximum decrease of the mitosis-index is reached [4]: 4 days; Day on which the maximum decrease of the thymidine index is reached [5]: 4 days
